Test system: not listed separately
Test: Oral toxicity
Type: in vivo
Conditions: 1000 mg/kg/day, five rats, 14 days
Source text: Moreover, the compounds of the invention are very low in toxicity in rats, dogs and so forth and characterized by broad margin between the toxic dose and the therapeutically effective dose. […] Furthermore, the compounds (I) of the invention produced long-lasting pharmacological effects in vivo, so that their TXA2 synthetase inhibiting activity is expected to be retained stably for a prolonged period of time. Accordingly, the compounds provided by the invention are used in low doses in mammals, including humans, for the prevention or treatment of thrombosis due to TXA2 -induced platelet aggregation, ischemic diseases due to vasospasm in heart, brain, periphery and circulatory system (e.g. myocardial infarction, stroke, renal infarction, pulmonary infarction, infarction at some other site, digestive tract ulcer) and diseases due to imbalance of the ratio of TXA2 /PGI2, with low incidence of adverse effects resulting from long-term continuous use thereof. They are administered orally in the form of tablets, capsules, powders or granules, for instance, or parenterally in the form of injections or pellets. Generally, they are used in a daily oral dose of 20-200 mg per adult human or a daily parenteral dose of 10-100 mg per adult human, respectively in 1-3 divided doses.

Row | SMILES | Deaths
1 | OCCCCC/C=C(\c1ccccc1)c1cccnc1 [Id-14, (E)-7-phenyl-7-(3-pyridyl)-6-hepten-1-ol] | no rat was dead for 14 days

Test system: TXA2 synthetase
Test: Inhibitory effect on blood thromboxane A2 (TXA2) production in rats
Type: in vivo, Male Sprague-Dawley rats
Conditions: 10 mg/kg oral, 2 hours after administration; serum TXB2 by radioimmunoassay, versus control
Description: Male Sprague-Dawley rats aged 7 to 8 weeks were used in groups of 5 individuals. Rats in the dosing group received by oral administration of 2 ml/kg of an aqueous suspension of 10 mg/kg of the test compound prepared with a small amount of gum arabic. To rats in the control group, a suspension of gum arabic only was similarly administered. Two hours after administration, each rat was anesthetized with pentobarbital sodium (50 mg/kg, intraperitoneal) and 1 ml of blood was taken from the abdominal aorta. The blood was allowed to stand at 25° C. for 90 minutes, after which it was centrifuged at 15,000 rpm for 2 minutes to separate the serum. The serum thromboxane B2 (TXB2) which was a stable metabolite of TXA2 produced in the blood during the standing procedure was determined by radioimmunoassay (Shibouta et al., Biochemical Pharmacol. 28, 3601, 1979). The percent inhibition of TXA2 synthetase was calculated from the difference in TXB2 production between the control and dosing groups.

Row | SMILES | % inhibition of TXA2 synthetase
2 | CCCCC/C=C(\c1ccccc1)c1cccnc1 [Id-5, (E)-1-phenyl-1-(3-pyridyl)-1-heptene] | 73%
3 | O=C(O)CCCCCCCCC/C=C(\c1ccccc1)c1cccnc1 [Id-9, (E)-12-phenyl-12-(3-pyridyl)-11-dodecenoic acid] | 90%
4 | OCCCCC/C=C(\c1ccccc1)c1cccnc1 [Id-14, (E)-7-phenyl-7-(3-pyridyl)-6-hepten-1-ol] | 92%
5 | OCCCCC/C=C(/c1ccccc1)c1cccnc1 [Id-15] | 87%
6 | OCCCCC/C=C(\c1cccnc1)c1cccs1 [Id-17, (E)-7-(3-pyridyl)-7-(2-thienyl)-6-hepten-1-ol] | 95%
7 | OCCCCC/C=C(\c1cccnc1)c1cccs1 [Id-18] | 72%
8 | CC(=O)OCCCCC/C=C(\c1ccccc1)c1cccnc1 [Id-19, 1-acetoxy-(E)-7-phenyl-7-(3-pyridyl)-6-heptene] | 94%
9 | O=COCCCCC/C=C(\c1ccccc1)c1cccnc1 [Id-20, 1-formyloxy-(E)-7-phenyl-7-(3-pyridyl)-6-heptene] | 87%
10 | CNC(=O)OCCCCC/C=C(\c1ccccc1)c1cccnc1 [Id-24, 1-methylaminocarbonyloxy-(E)-7-phenyl-7-(3-pyridyl)-6-heptene] | 90%
11 | CCCCNC(=O)OCCCCC/C=C(\c1ccccc1)c1cccnc1 [Id-25, 1-(n-butyl)aminocarbonyloxy-(E)-7-phenyl-7-(3-pyridyl)-6-heptene] | 83%
12 | O=C(Nc1ccccc1)OCCCCC/C=C(\c1ccccc1)c1cccnc1 [Id-27, 1-phenylaminocarbonyloxy-(E)-7-phenyl-7-(3-pyridyl)-6-heptene] | 87%
13 | S=C(Nc1ccccc1)OCCCCC/C=C(\c1ccccc1)c1cccnc1 [Id-28, 1-phenylaminothiocarbonyloxy-(E)-7-phenyl-7-(3-pyridyl)-6-heptene] | 79%
14 | Cc1ccc(S(=O)(=O)NC(=O)OCCCCC/C=C(\c2ccccc2)c2cccnc2)cc1 [Id-29, 1-(p-toluenesulfonyl)aminocarbonyloxy-(E)-7-phenyl-7-(3-pyridyl)-6-heptene] | 94%
15 | O=[N+]([O-])OCCCCC/C=C(\c1ccccc1)c1cccnc1 [Id-32, 1-nitroxy-(E)-7-phenyl-7-(3-pyridyl)-6-heptene] | 94%
16 | COCCCCC/C=C(\c1ccccc1)c1cccnc1 [Id-37, (E)-1-methoxy-7-phenyl-7-(3-pyridyl)-6-heptene] | 92%
17 | NC(=O)CCCC/C=C(\c1ccccc1)c1cccnc1 [Id-43, (E)-7-phenyl-7-(3-pyridyl)-6-heptenamide] | 93%
18 | O=C(CCCC/C=C(\c1ccccc1)c1cccnc1)Nc1ccccc1 [Id-44, N-phenylamide of (E)-7-phenyl-7-(3-pyridyl)-6-heptenoic acid] | 94%
19 | CC(C)(C)[Si](C)(C)OCCCCC/C=C(\c1ccccc1)c1cccnc1 [Id-48, dimethyl-t-butylsilyl ether of (E)-7-phenyl-7-(3-pyridyl)-6-hepten-1-ol] | 91%
20 | O=C(O)CCCC/C=C(\c1ccccc1)c1ccc[n+]([O-])c1 [Ie-2, (E)-7-phenyl-7-(1-oxide-3-pyridyl)-6-heptenoic acid] | 85%
21 | O=C(O)CCCC/C=C(/c1ccccc1)c1ccc[n+]([O-])c1 [Ie-3] | 70%
22 | O=C(O)CCCCCCCCC/C=C(\c1ccccc1)c1ccc[n+]([O-])c1 [Ie-4] | 85%
23 | O=C(O)CCCC/C=C(/c1ccc[n+]([O-])c1)c1cccs1 [Ie-5] | 90%
24 | COC(=O)CCCC/C=C(\c1ccccc1)c1ccc[n+]([O-])c1 [Ie-6] | 80%
25 | [O-][n+]1cccc(/C(=C/CCCCCO)c2ccccc2)c1 [Ie-7, (E)-7-phenyl-7-(1-oxide-3-pyridyl)-6-hepten-1-ol] | 80%
26 | O=C(Nc1ccccc1)OCCCCC/C=C(\c1ccccc1)c1ccc[n+]([O-])c1 [Ie-8] | 80%
27 | CCCCC/C=C(\c1ccccc1)c1ccc[n+]([O-])c1 [Ie-9] | 68%
